pEC50: −log10 of the molar value. Where two headings read alike, the source gives them in different places.
System: SMN protein
Test: cellular SMN ELISA (SMN protein elevation) in myoblast cell line from SMNdelta7 mouse model
Format: cell-based
Method: A cellular SMN ELISA was used to measure the effects of low molecular weight compounds on SMN protein elevation. Cells from a myoblast cell line derived from the SMNdelta7 mouse model (kind gift from Steve Burden, NYU) were seeded into a 384-well plate at a density of 3000 cells/well and treated with compounds for 24 hours. ELISA capture plates were prepared by coating 384-well plates (Immulon 4HBX) with 0.5 ug/mL of anti-SMN mAb (BD Science, Catalog number 610647) at 4° C. overnight. The plates were washed 5 times with 110 uL of PBS-Tween (0.05% Tween-20, PBST), blocked with 100 uL of 1% BSA in PBST for 2 hours and washed (5 times) with 100 uL of PBST. After 24 hours of compound treatment cells were lysed in a modified RIPA-buffer, on ice for 1 hour. 20 uL of lysate and 20 uL of 1% BSA were then added to the ELISA capture plates and incubated at 4° C. overnight. Plates were washed (5 times) with PBST and then incubated with 1:100 dilution of primary rabbit anti-SMN polyclonal antibody (Santa cruz, Catalog number SC-15320) at room temperature for 1 hour and subsequently washed (5 times) with 110 uL of PBST. This was followed by addition of 1:100 Goat anti-Rabbit IgG-HRP linked (Cell Signaling, Catalog number 7074) secondary antibody for 1 hour. Plates were then washed with PBST and incubated with 40 uL TMB substrate (Cell Signaling, Catalog number 7004 L) at room temperature for 1-10 minutes with shaking. The reaction was stopped by addition of 40 uL of stop solution (Cell signaling, Catalog number 7002 L) and absorption was measured at 450 nm. Data was reported as fold activation over DMSO control, and EC50.
ELISA assay condition 1: compound concentration range 20 nM-10 uM; ELISA assay condition 2: compound concentration 100 pM-10 uM. Data generated in Biological Example 1 using ELISA conditions 1 or 2.

[1] = Biological Example 1, SMN ELISA, SMNdelta7 mouse myoblasts, 24 hours compound treatment
[2] = Biological Example 1, SMN ELISA, SMNdelta7 mouse myoblasts, 24 hours compound treatment, read-out: SMN Activity (EC50)

Compound | SMN Activity (fold activation over DMSO control) [1] | pEC50 [2] | Fold activation (comparison of unsubstituted, ortho-hydroxy and ortho-alkoxy pyridazines, as in Biological Example 1) | pEC50 (comparison of unsubstituted, ortho-hydroxy and ortho-alkoxy pyridazines, as in Biological Example 1, read-out: SMN ELISA EC50)
Cc1cc(N2CCCC2)c2cc(-c3ccc(N(C)C4CC(C)(C)NC(C)(C)C4)nn3)c(O)cc2n1 [Example 10-2, 2-methyl-6-(6-(methyl(2,2,6,6-tetramethylpiperidin-4-yl)amino)pyridazin-3-yl)-4-(pyrrolidin-1-yl)quinolin-7-ol] | 2.6 fold | 7.19 |  | 
Cc1cc(N2CCOCC2)c2cc(-c3ccc(N(C)C4CC(C)(C)NC(C)(C)C4)nn3)c(O)cc2n1 [Example 10-3, 2-Methyl-6-(6-(methyl(2,2,6,6-tetramethylpiperidin-4-yl)amino)pyridazin-3-yl)-4-morpholinoquinolin-7-ol] | 2.6 fold | 6.96 |  | 
Cc1cc(N(C)C)c2cc(-c3ccc(N(C)C4CC(C)(C)NC(C)(C)C4)nn3)c(O)cc2n1 [Example 10-4, 4-(Dimethylamino)-2-methyl-6-(6-(methyl(2,2,6,6-tetramethylpiperidin-4-yl)amino)pyridazin-3-yl)quinolin-7-ol] | 2.7 fold | 7.92 |  | 
CCOc1cc(C)nc2cc(O)c(-c3ccc(N(C)C4CC(C)(C)NC(C)(C)C4)nn3)cc12 [Example 10-5, 4-Ethoxy-2-methyl-6-(6-(methyl(2,2,6,6-tetramethylpiperidin-4-yl)amino)pyridazin-3-yl)quinolin-7-ol] | 3.3 fold | 7.70 |  | 
Cc1cc(-c2cnn(C)c2)c2cc(-c3ccc(N(C)C4CC(C)(C)NC(C)(C)C4)nn3)c(O)cc2n1 [Example 11-1, 2-methyl-6-(6-(methyl(2,2,6,6-tetramethylpiperidin-4-yl)amino)pyridazin-3-yl)-4-(1-methyl-1H-pyrazol-4-yl)quinolin-7-ol] | 2.6 fold | 7.22 |  | 
COc1ccnc2cc(-c3ccc(N(C)C4CC(C)(C)NC(C)(C)C4)nn3)c(O)cc12 [Example 12-1, 4-methoxy-7-(6-(methyl(2,2,6,6-tetramethylpiperidin-4-yl)amino)pyridazin-3-yl)quinolin-6-ol] | 2.4 fold | 8.52 |  | 
CN(c1ccc(-c2cc3nccnc3cc2O)nn1)C1CC(C)(C)NC(C)(C)C1 [Example 13-1, 7-(6-(methyl(2,2,6,6-tetramethylpiperidin-4-yl)amino)pyridazin-3-yl)quinoxalin-6-ol] | 2.7 fold | 8.05 | 2.7 — | 8.05
CN(c1ccc(-c2cc3cc(C4CCOCC4)cnc3cc2O)nn1)C1CC(C)(C)NC(C)(C)C1 [Example 14-1, 6-(6-(methyl(2,2,6,6-tetramethylpiperidin-4-yl)amino)pyridazin-3-yl)-3-(tetrahydro-2H-pyran-4-yl)quinolin-7-ol] | 2.91 fold | 7.20 |  | 
CN(c1ccc(-c2cc3ncc(Cl)cc3cc2O)nn1)C1CC(C)(C)NC(C)(C)C1 [Example 15-1, 3-chloro-7-(6-(methyl(2,2,6,6-tetramethylpiperidin-4-yl)amino)pyridazin-3-yl)quinolin-6-ol] | 2.68 fold | 7.80 |  | 
CN(c1ccc(-c2cc3ncc(Br)cc3cc2O)nn1)C1CC(C)(C)NC(C)(C)C1 [Example 15-2, 3-bromo-7-(6-(methyl(2,2,6,6-tetramethylpiperidin-4-yl)amino)pyridazin-3-yl)quinolin-6-ol] | 2.52 fold | 7.72 |  | 
Cc1cnc2cc(-c3ccc(N(C)C4CC(C)(C)NC(C)(C)C4)nn3)c(O)cc2c1 [Example 15-3, 3-methyl-7-(6-(methyl(2,2,6,6-tetramethylpiperidin-4-yl)amino)pyridazin-3-yl)quinolin-6-ol] | 3.28 fold | 8.15 |  | 
Cc1cnc2cc(-c3ccc(N(C)C4CC(C)(C)NC(C)(C)C4)nn3)c(O)c(Br)c2c1 [Example 16-1, 5-bromo-3-methyl-7-(6-(methyl(2,2,6,6-tetramethylpiperidin-4-yl)amino)pyridazin-3-yl)quinolin-6-ol] | 2.44 fold | 6.59 |  | 
CN(c1ccc(-c2cc3c(cc2O)c(=O)ccn3C)nn1)C1CC(C)(C)NC(C)(C)C1 [Example 17-1, 6-hydroxy-1-methyl-7-(6-(methyl(2,2,6,6-tetramethylpiperidin-4-yl)amino)pyridazin-3-yl)quinolin-4(1H)-one] | 2.56 fold | 6.16 |  | 
Cc1nc2cc(O)c(-c3ccc(N(C)C4CC(C)(C)NC(C)(C)C4)nn3)cc2nc1C [Example 18-1, 2,3-dimethyl-7-(6-(methyl(2,2,6,6-tetramethylpiperidin-4-yl)amino)pyridazin-3-yl)quinoxalin-6-ol] | 3.24 fold | 7.82 |  | 
Cc1cnc2cc(O)c(-c3ccc(N(C)C4CC(C)(C)NC(C)(C)C4)nn3)cc2n1 [Example 18-2, 2-methyl-7-(6-(methyl(2,2,6,6-tetramethylpiperidin-4-yl)amino)pyridazin-3-yl)quinoxalin-6-ol] | 3.31 fold | 8.05 |  | 
Cc1cnc2cc(-c3ccc(N(C)C4CC(C)(C)NC(C)(C)C4)nn3)c(O)cc2n1 [Example 18-3, 3-methyl-7-(6-(methyl(2,2,6,6-tetramethylpiperidin-4-yl)amino)pyridazin-3-yl)quinoxalin-6-ol] | 2.72 fold | 7.80 |  | 
COc1ccnc2cc(O)c(-c3ccc(N(C)C4CC(C)(C)NC(C)(C)C4)nn3)cc12 [Example 19-1, 4-methoxy-6-(6-(methyl(2,2,6,6-tetramethylpiperidin-4-yl)amino)pyridazin-3-yl)quinolin-7-ol] | 2.65 fold | 8.00 |  | 
Cc1cc(N2CCC2)c2cc(-c3ccc(N(C)C4CC(C)(C)NC(C)(C)C4)nn3)c(O)cc2n1 [Example 20-1, 4-(azetidin-1-yl)-2-methyl-6-(6-(methyl(2,2,6,6-tetramethylpiperidin-4-yl)amino)pyridazin-3-yl)quinolin-7-ol] | 2.86 fold | 7.08 |  | 
Cc1cc(C#N)c2cc(-c3ccc(N(C)C4CC(C)(C)NC(C)(C)C4)nn3)c(O)cc2n1 [Example 20-2, 7-hydroxy-2-methyl-6-(6-(methyl(2,2,6,6-tetramethylpiperidin-4-yl)amino)pyridazin-3-yl)quinoline-4-carbonitrile] | 2.68 fold | 7.32 |  | 
Cc1cc(C2CC2)c2cc(-c3ccc(N(C)C4CC(C)(C)NC(C)(C)C4)nn3)c(O)cc2n1 [Example 20-3, 4-cyclopropyl-2-methyl-6-(6-(methyl(2,2,6,6-tetramethylpiperidin-4-yl)amino)pyridazin-3-yl)quinolin-7-ol] | 2.72 fold | 7.19 |  | 
Cc1cc(C2=CCOCC2)c2cc(-c3ccc(N(C)C4CC(C)(C)NC(C)(C)C4)nn3)c(O)cc2n1 [Example 20-4, 4-(3,6-dihydro-2H-pyran-4-yl)-2-methyl-6-(6-(methyl(2,2,6,6-tetramethylpiperidin-4-yl)amino)pyridazin-3-yl)quinolin-7-ol] | 2.72 fold | 6.78 |  | 
Cc1cc(C2CCOCC2)c2cc(-c3ccc(N(C)C4CC(C)(C)NC(C)(C)C4)nn3)c(O)cc2n1 [Example 20-5, 2-methyl-6-(6-(methyl(2,2,6,6-tetramethylpiperidin-4-yl)amino)pyridazin-3-yl)-4-(tetrahydro-2H-pyran-4-yl)quinolin-7-ol] | 2.69 fold | 6.54 |  | 
Cc1cc(C2COC2)c2cc(-c3ccc(N(C)C4CC(C)(C)NC(C)(C)C4)nn3)c(O)cc2n1 [Example 20-6, 2-methyl-6-(6-(methyl(2,2,6,6-tetramethylpiperidin-4-yl)amino)pyridazin-3-yl)-4-(oxetan-3-yl)quinolin-7-ol] | 3.18 fold | 6.78 |  | 
CN(C)c1ccnc2cc(O)c(-c3ccc(N(C)C4CC(C)(C)NC(C)(C)C4)nn3)cc12 [Example 21-1, 4-(dimethylamino)-6-(6-(methyl(2,2,6,6-tetramethylpiperidin-4-yl)amino)pyridazin-3-yl)quinolin-7-ol] | 3.01 fold | 7.22 |  | 
CN(c1ccc(-c2cc3c(=O)nc[nH]c3cc2O)nn1)C1CC(C)(C)NC(C)(C)C1 [Example 22-1, 7-hydroxy-6-(6-(methyl(2,2,6,6-tetramethylpiperidin-4-yl)amino)pyridazin-3-yl)quinazolin-4(1H)-one] | 2.58 fold | 6.96 |  | 
